Measurements as given in ChEMBL document CHEMBL4819042, “Aromatic and Aliphatic Apiuronides from the Bark of Cinnamomum cassia” (J Nat Prod, 2021).
Calls of active or inactive are those of the source. The rule behind the calls is not given here.

System: Mus musculus
Assay: Analgesic activity against paclitaxel-induced cold allodynia in C57BL/6 mouse model at 10 mg/kg, po administered at day 14 and day 25 of post paclitaxel stimulation and measured after 1 hr
Format: functional, organism-based

Question: `COc1cc(O[C@@H]2O[C@H](CO[C@@H]3OC[C@](O)(CO)[C@H]3O)[C@@H](O)[C@H](O)[C@H]2O)cc(OC)c1OC` was tested. Which Activity did it give?
Answer: Active

Question: Which Activity does the source give for `COc1cc([C@H]2OC[C@H]3[C@@H]2CO[C@@H]3c2cc(OC)c(O)c(OC)c2)cc(OC)c1O` here?
Answer: Active

Question: With `CC(C)[C@@]1(O)CC2(O)[C@@]3(O)[C@]45O[C@](O)(C[C@@]2(C)[C@@]4(O)CC[C@H](C)[C@H]5O)[C@@]31C` as the molecule, how does the Activity read?
Answer: Active

Question: With `CC1=C(C(C)CO[C@@H]2O[C@H](CO)[C@@H](O)[C@H](O)[C@H]2O)C[C@@]2(O)[C@@]3(C)CC(=O)O[C@@H]4[C@@H](C)CC[C@@]3(O)[C@@]4(O)[C@@]12O` (some centres undefined) as the molecule, how does the Activity read?
Answer: Active
